Assay results: paper PMC12207590, “Substrate Specificity of the Organic Cation Transporters MATE1 and MATE2K and Functional Overlap with OCT1 and OCT2” (Journal of Medicinal Chemistry, 2025)
Like-named read-outs stand apart in the source and are kept apart here.

How the values were obtained:
MATE2K [1] = target: T1, MATE2K (Homo sapiens, UniProt Q86VL8); assay: Uptake ratio in MATE2K-overexpressing HEK293 cells vs empty vector (2.5 μM, 1 min, HPLC-MS/MS); assay type: cell-based; conditions: for MATE2: uptake ratio MATE2K-overexpressing vs empty-vector HEK293 cells, mean
T1 sequence (Q86VL8 1-566 isoform Q86VL8-3): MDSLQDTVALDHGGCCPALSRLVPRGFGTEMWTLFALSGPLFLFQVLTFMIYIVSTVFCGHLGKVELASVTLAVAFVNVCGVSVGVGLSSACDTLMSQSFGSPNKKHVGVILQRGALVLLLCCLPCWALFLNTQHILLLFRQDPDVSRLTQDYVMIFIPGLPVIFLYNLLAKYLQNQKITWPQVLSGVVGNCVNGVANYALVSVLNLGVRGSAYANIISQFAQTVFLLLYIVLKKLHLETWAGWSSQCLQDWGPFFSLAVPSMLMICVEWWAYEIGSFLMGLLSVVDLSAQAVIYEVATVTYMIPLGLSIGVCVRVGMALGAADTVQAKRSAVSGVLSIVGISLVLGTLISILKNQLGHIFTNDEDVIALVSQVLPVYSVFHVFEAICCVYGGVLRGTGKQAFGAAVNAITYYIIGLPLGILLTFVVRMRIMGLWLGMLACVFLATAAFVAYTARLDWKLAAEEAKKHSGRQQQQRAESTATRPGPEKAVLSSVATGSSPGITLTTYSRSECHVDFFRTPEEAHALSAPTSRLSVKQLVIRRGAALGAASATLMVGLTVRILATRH

MATE1 [2] = target: T2, MATE1 (Homo sapiens, UniProt Q96FL8); assay: Uptake ratio in MATE1-overexpressing HEK293 cells vs empty vector (2.5 μM, 1 min, HPLC-MS/MS); assay type: cell-based; conditions: for MATE1: uptake ratio MATE1-overexpressing vs empty-vector HEK293 cells, mean
T2 sequence (Q96FL8 1-570): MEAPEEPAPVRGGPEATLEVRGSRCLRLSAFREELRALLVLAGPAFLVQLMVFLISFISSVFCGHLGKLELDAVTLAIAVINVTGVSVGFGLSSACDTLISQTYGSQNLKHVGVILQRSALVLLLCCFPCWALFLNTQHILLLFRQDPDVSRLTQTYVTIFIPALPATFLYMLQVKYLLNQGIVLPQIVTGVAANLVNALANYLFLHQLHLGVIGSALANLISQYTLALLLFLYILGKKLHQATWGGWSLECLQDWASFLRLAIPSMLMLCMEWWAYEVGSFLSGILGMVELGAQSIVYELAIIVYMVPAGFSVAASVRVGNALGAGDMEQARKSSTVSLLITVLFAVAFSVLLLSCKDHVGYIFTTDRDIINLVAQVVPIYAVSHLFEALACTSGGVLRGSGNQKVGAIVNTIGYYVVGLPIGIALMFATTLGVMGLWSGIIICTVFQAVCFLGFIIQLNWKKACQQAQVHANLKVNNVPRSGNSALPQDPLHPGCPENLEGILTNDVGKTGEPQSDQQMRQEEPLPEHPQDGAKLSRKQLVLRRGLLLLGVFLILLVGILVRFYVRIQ

hCMEC [3] = assay: TS DPH hCMEC (Table S2); assay type: cell-based, human; set-up: scale not given here
hCMEC [4] = assay: TS MDAI hCMEC (Table S2); assay type: cell-based, human; set-up: scale not given here
MATE1 [5] = target: T2, MATE1; assay: Concentration-dependent uptake (Michaelis-Menten) via MATE1 in HEK293 cells; conditions: HEK293, 1 min, net uptake; for Km: read-out: MATE1 KM
MATE2K [6] = target: T1, MATE2K; assay: Concentration-dependent uptake (Michaelis-Menten) via MATE2K in HEK293 cells; conditions: HEK293, 1 min, net uptake; for Km: read-out: MATE2K KM
[7] = fold uptake over empty vector, 2.5 μM, 1 min
[8] = mean ratio of uptake in MATE2K-overexpressing HEK293 cells vs empty vector, 2.5 μM, 1 min
[9] = mean ratio of uptake in MATE1-overexpressing HEK293 cells vs empty vector, 2.5 μM, 1 min

Fc1ccc([C@@H]2CCNC[C@H]2COc2ccc3c(c2)OCO3)cc1 [Paroxetine]
MATE2K ratio (MATE2K [1]; [7]): 1.79 | MATE1 ratio (MATE1 [2]; [7]): 1.92 | TS DPH hCMEC (hCMEC [3]; Table S2): 0.13 | TS MDAI hCMEC (hCMEC [4]; Table S2): 0.07

NCCc1ccc(O)cc1 [Tyramine]
MATE2K ratio in this study (MATE2K [1]; Table S1, 2.5 μM, 1 min): 1.39 | MATE2 (MATE2K [1]; 2.5 μM, 1 min): 1.39 | MATE1 Vmax (MATE1 [5]): 5948 pmol × mg protein^–1 × min^–1 | Km (MATE1 [5]): 136 µM | MATE1 ratio in this study (MATE1 [2]; Table S1, 2.5 μM, 1 min): 10.06 | MATE1 (MATE1 [2]; 2.5 μM, 1 min): 10.06 | MATE2K Vmax (MATE2K [6]): 2868 pmol × mg protein^–1 × min^–1 | Km (MATE2K [6]): 1060 µM

Cc1cccc(C(C)c2cnc[nH]2)c1C (stereo not shown) [Medetomidine]
MATE2K ratio (MATE2K [1]; [7]): 1.21 | MATE1 ratio (MATE1 [2]; [7]): 1.11 | TS DPH hCMEC (hCMEC [3]; Table S2): 0.79 | TS MDAI hCMEC (hCMEC [4]; Table S2): 0.96

NC[C@H](O)c1ccc(O)c(O)c1 [Norepinephrine]
MATE1 Vmax (MATE1 [5]): 18,720 pmol × mg protein^–1 × min^–1 | Km (MATE1 [5]): 1870 µM | MATE2K Vmax (MATE2K [6]): 673 pmol × mg protein^–1 × min^–1 | Km (MATE2K [6]): 1150 µM

CC(C)C(=O)Oc1ccc(CO)cc1[C@H](CCN(C(C)C)C(C)C)c1ccccc1 [Fesoterodine]
MATE2K ratio (MATE2K [1]; [7]): 1.02 | MATE1 ratio (MATE1 [2]; [7]): 1.09 | TS DPH hCMEC (hCMEC [3]; Table S2): 0.40 | TS MDAI hCMEC (hCMEC [4]; Table S2): 0.41

C[N+](C)(C)CCO [Choline]
MATE2K ratio (MATE2K [1]; [7]): 1.09 | MATE2 (uptake ratio) (MATE2K [1]; [8]): 1.09 | MATE1 ratio (MATE1 [2]; [7]): 1.13 | MATE1 (uptake ratio) (MATE1 [2]; [9]): 1.13 | TS DPH hCMEC (hCMEC [3]; Table S2): 1.04 | TS MDAI hCMEC (hCMEC [4]; Table S2): 1.27

N[C@@H]1CON=C1O [Cycloserine (D), Cycloserine]
MATE2K ratio (MATE2K [1]; [7]): 1.14 | MATE1 ratio (MATE1 [2]; [7]): 1.19 | TS DPH hCMEC (hCMEC [3]; Table S2): 1.25 | TS MDAI hCMEC (hCMEC [4]; Table S2): 0.79

COc1ccc2c(c1)N(C[C@H](C)CN(C)C)c1ccccc1S2 [Levomepromazine]
MATE2K ratio (MATE2K [1]; [7]): 1.19 | MATE1 ratio (MATE1 [2]; [7]): 1.21 | TS DPH hCMEC (hCMEC [3]; Table S2): 0.31 | TS MDAI hCMEC (hCMEC [4]; Table S2): 0.33

CNC[C@H](O)c1ccc(O)c(O)c1 [Epinephrine]
MATE1 Vmax (MATE1 [5]): 22,773 pmol × mg protein^–1 × min^–1 | Km (MATE1 [5]): 1080 µM | MATE2K Vmax (MATE2K [6]): 2968 pmol × mg protein^–1 × min^–1 | Km (MATE2K [6]): 1510 µM

OC(CCN1CCCCC1)(c1ccccc1)C1CC2C=CC1C2 (stereo not shown) [Biperiden]
MATE2K ratio (MATE2K [1]; [7]): 1.15 | MATE2 (uptake ratio) (MATE2K [1]; [8]): 1.15 | MATE1 ratio (MATE1 [2]; [7]): 1.24 | MATE1 (uptake ratio) (MATE1 [2]; [9]): 1.24 | TS DPH hCMEC (hCMEC [3]; Table S2): 0.25 | TS MDAI hCMEC (hCMEC [4]; Table S2): 0.26

Cc1ncc(CO)c(CO)c1O [Pyridoxin]
MATE2K ratio (MATE2K [1]; [7]): 1.18 | MATE2 (MATE2K [1]; 2.5 μM, 1 min): 1.18 | MATE1 Vmax (MATE1 [5]): 10,014 pmol × mg protein^–1 × min^–1 | Km (MATE1 [5]): 4230 µM | MATE1 ratio (MATE1 [2]; [7]): 2.33 | MATE1 (MATE1 [2]; 2.5 μM, 1 min): 2.33 | MATE2K Vmax (MATE2K [6]): 593 pmol × mg protein^–1 × min^–1 | Km (MATE2K [6]): 495 µM

C=CCN1CC[C@]23c4c5ccc(O)c4O[C@H]2C(=O)CC[C@@]3(O)[C@H]1C5 [Naloxone]
MATE2K ratio (MATE2K [1]; [7]): 1.29 | MATE1 ratio (MATE1 [2]; [7]): 1.36 | TS DPH hCMEC (hCMEC [3]; Table S2): 0.78 | TS MDAI hCMEC (hCMEC [4]; Table S2): 0.44

O=C1CC2(CCCC2)CC(=O)N1CCCCN1CCN(c2ncccn2)CC1 [Buspirone]
MATE2 (uptake ratio) (MATE2K [1]): 1.36 | MATE2K ratio (MATE2K [1]): 1.36 | MATE1 (uptake ratio) (MATE1 [2]): 2.36 | MATE1 ratio (MATE1 [2]): 2.36 | TS DPH hCMEC (hCMEC [3]): 0.56 | TS MDAI hCMEC (hCMEC [4]): 0.64

C=CCN1C[C@H](C(=O)N(CCCN(C)C)C(=O)NCC)C[C@@H]2c3cccc4[nH]cc(c34)C[C@H]21 [Cabergoline]
MATE2K ratio (MATE2K [1]; [7]): 1.13 | MATE2 (uptake ratio) (MATE2K [1]; [8]): 1.13 | MATE1 ratio (MATE1 [2]; [7]): 1.20 | MATE1 (uptake ratio) (MATE1 [2]; [9]): 1.2 | TS DPH hCMEC (hCMEC [3]; Table S2): 0.38 | TS MDAI hCMEC (hCMEC [4]; Table S2): 0.44

C[N+](C)(C)CC(=O)O [Betaine]
MATE2K ratio (MATE2K [1]; [7]): 1.07 | MATE2 (uptake ratio) (MATE2K [1]; [8]): 1.07 | MATE1 ratio (MATE1 [2]; [7]): 0.80 | MATE1 (uptake ratio) (MATE1 [2]; [9]): 0.8 | TS DPH hCMEC (hCMEC [3]; Table S2): 0.98 | TS MDAI hCMEC (hCMEC [4]; Table S2): 1.09

CC(=O)OC(C)C[N+](C)(C)C (stereo not shown) [Methacholine]
MATE2K ratio (MATE2K [1]; [7]): 2.57 | MATE1 Vmax (MATE1 [5]): 17,843 pmol × mg protein^–1 × min^–1 | Km (MATE1 [5]): 1990 µM | MATE1 ratio (MATE1 [2]; [7]): 21.58 | MATE2K Vmax (MATE2K [6]): 1240 pmol × mg protein^–1 × min^–1 | Km (MATE2K [6]): 1400 µM

CCC1(c2cccc(O)c2)CCCCN(C)C1 (stereo not shown) [Meptazinol]
MATE2K ratio (MATE2K [1]): 1.57 | MATE1 ratio (MATE1 [2]): 1.21 | TS DPH hCMEC (hCMEC [3]): 0.40 | TS MDAI hCMEC (hCMEC [4]): 0.41
